molecular target: Vitamin D3 receptor (Rattus norvegicus) (UniProt P13053); experiment: In vitro study, VDR binding assay were performed as previously described.
Sequence (P13053 whole entry, looked up): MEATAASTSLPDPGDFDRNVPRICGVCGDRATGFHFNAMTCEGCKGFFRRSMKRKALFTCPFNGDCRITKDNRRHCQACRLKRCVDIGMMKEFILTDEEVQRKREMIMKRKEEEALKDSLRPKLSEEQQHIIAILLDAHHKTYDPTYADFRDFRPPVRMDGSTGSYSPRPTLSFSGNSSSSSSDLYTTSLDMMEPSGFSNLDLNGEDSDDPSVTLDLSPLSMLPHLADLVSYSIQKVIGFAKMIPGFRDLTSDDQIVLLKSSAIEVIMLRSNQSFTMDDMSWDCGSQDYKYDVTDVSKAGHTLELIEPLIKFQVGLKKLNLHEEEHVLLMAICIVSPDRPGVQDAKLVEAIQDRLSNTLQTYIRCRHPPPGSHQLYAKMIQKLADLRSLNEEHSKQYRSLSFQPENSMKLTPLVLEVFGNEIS

Ki [nM] | SMILES
0.3 | C=C1[C@H](O)CC(=C/C=C2\CCC[C@@]3(C)C2CCC3[C@H](C)CCCC)C[C@H]1O (some centres undefined) [Vitamin D analog, 8]
0.3 | C=C1[C@H](O)CC(=C/C=C2\CCC[C@@]3(C)C2CCC3[C@@H](C)CCCCO)C[C@H]1O (some centres undefined) [Vitamin D analog, 7]
0.2 | C=C1[C@H](O)CC(=C/C=C2\CCC[C@@]3(C)C2CCC3[C@H](C)CCCCO)C[C@H]1O (some centres undefined) [Vitamin D analog, 6]
0.3 | C=C1[C@H](O)CC(=C/C=C2\CCC[C@@]3(C)C2CCC3[C@@H](C)CCCC)C[C@H]1O (some centres undefined) [Vitamin D analog, 9]

Source: BindingDB's records for doi:10.1016/j.bioorg.2013.01.001 (University of Wisconsin-Madison, 2013)
